According to US11084783B2, “O-alkyl-benzylideneguanidine derivatives and therapeutic use for the treatment of disorders associated with an accumulation of misfolded proteins” (INFLECTIS BIOSCIENCE, priority 2014, dated 2021):

How the values were obtained:
Type in all cases: cell-based
HeLa cells = experiment: Cytoprotection from ER stress (tunicamycin), cell viability by WST-8; parameters: key to Cytoprotection from ER stress compared to guanabenz: +: lower cytoprotective effect compared to Guanabenz; ++: similar cytoprotective effect compared to Guanabenz; +++: higher cytoprotective effect compared to Guanabenz; settings: for Cytoprotection from ER stress compared to guanabenz: HeLa cells, 6 hour exposure to tunicamycin 5 μg/mL, compounds 0.5-10 μM, viability 48 h or 72 h
Description: Cytoprotection against ER stress can be measured by a suitable assay. For example, cytoprotection can be measured in HeLa cells in which ER stress is elicited by the addition of media containing tunicamycin, a mixture of homologous nucleoside antibiotics that inhibits the UDP-HexNAc: polyprenol-P HexNAc-1-P family of enzymes and is used to induce unfolded protein response. Cell viability can be detected in the presence and absence of inhibitor compounds after a set period of time, by measuring the reduction of WST-8 into formazan using a standard cell viability kit (such as Cell Viability Counting Kit-8 from Dojindo). Cytoprotection from ER stress is measured in terms of the percentage increase in viable cells (relative to control) after ER stress. Further details of a suitable assay are set forth in the accompanying Examples section.
This assay is described in Tsaytler et al. (Science 2011). HeLa Cells were cultured in Eagle's Minimum Essential Medium (EMEM) supplemented with Glutamine, Sodium Pyruvate, Non-Essential Amino Acids, Penicillin and Streptomycin containing 10% Foetal Bovine Serum (FBS), at 37° C. in 5% CO2 atmosphere. Cells were plated in 96 well plates at a density of 17,000 cells/mL the day before the treatment. ER stress was elicited by addition of 5 μg/mL tunicamycin (Sigma-Aldrich) together with PPP1R15A inhibitors (0.5-10 μM). Media were changed 6h later with fresh media and the cytoprotection was maintained by the addition of PPP1R15A inhibitors (0.5-10 μM). Cell viability was assessed by measuring the reduction of WST-8 into formazan using Cell Counting Kit-8 (Sigma) according to the supplier's recommendation, 48 h or 72h after tunicamycin treatment. Cytoprotection from ER stress is measured in terms of cytoprotective potency effect compared to the reference compound Guanabenz (Tsaytler et al., Science 2011) after ER stress: • ‘+’ no cytoprotective effect; • ‘+’ lower cytoprotective effect compared to Guanabenz; • ‘++’ similar cytoprotective effect compared to Guanabenz; • ‘+++’ higher cytoprotective effect compared to Guanabenz.
Table 1 summarizes the results of cytoprotective effect of different compounds of the invention, compared to guanabenz, after the stress induced by a 6 hour exposure of tunicamycin.

[1] = test system: interferon-gamma injured rat oligodendrocytes; experiment: In vitro multiple sclerosis model: interferon-gamma injured rat oligodendrocytes co-cultured with neurons; settings: interferon-gamma 70 U/ml, 48 H; total number of O4 cells
Method: Neurons/OPC were cultured as previously describes by Yang et al. (2005 J Neurosci Methods;149(1) pp50-6) with modifications. Briefly, the full brain (without cerebellum) obtained from 17-day old rat embryos (Wistar, Janvier labs) were removed. The full brains were treated for 20 min at 37° C. with a trypsin-EDTA (Pan Biotech) solution at a final concentration of 0.05% trypsin and 0.02% EDTA. The dissociation was stopped by addition of Dulbecco's modified Eagle's medium (DMEM) with 4.5 g/liter of glucose (Pan Biotech), containing DNAse I grade II (final concentration 0.5 mg/ml; Pan Biotech, Batch: h140508) and 10% fetal calf serum (FCS; Invitrogen, Batch: 41Q7218K). Cells were mechanically dissociated by three forced passages through the tip of a 10-ml pipette. Cells were then centrifuged at 515 g for 10 min at 4° C. The supernatant was discarded, and the pellet was resuspended in a defined culture medium consisting of Neurobasal medium (Invitrogen, Batch: 1636133) with a 2% solution of B27 supplement (Invitrogen, Batch: 1660670), 2 mmol/liter of L-glutamine (Pan Biotech), 2% of PS solution, and, 1% of FCS and 10 ng/ml of platelet derived growth factor (PDGF-AA, Batch: H131205). The cells were seeded at a density of 20 000 cells per well in 96 well plates precoated with PLL (BD corning, Batch: 6614022) and laminine (Sigma, Batch: 083M4034V). The plates were maintained at 37° C. into a humidified incubator, in an atmosphere of air (95%)-CO2 (5%). Half of the medium was changed every 2 days with fresh medium. On days 18, test compounds were pre-incubated 1 hour before interferon-gamma (70 U/ml, 48H, R&D system, Batch: AAL2214081) application.
On day 18 of culture, test compounds (4 concentrations) were solved in culture medium and then pre-incubated with oligodendrocyte co-cultured with neurons for 1 hour before the interferon-gamma (70 U/ml, 48H) application. […]
For each condition, 30 pictures per well were taken using ImageXpress (Molecular Device) with 20× magnification. […] All values were expressed as mean +/−SEM (s.e.mean) (n=6 wells per condition).

INS1 insulinoma cell = experiment: INS1 cell line cytoprotection from ER stress (tunicamycin); settings: 6 hour exposure to tunicamycin 2.5 μg/mL, different concentrations, viability 72h
Method: Cells were plated in 96 well plates at a density of 0.5.10^6 cells/mL for Min6 cell line, 0,4.10^6 cells/mL for INS1 cell line the day before the treatment. ER stress was elicited by addition of 2.5 μg/mL tunicamycin (Sigma Aldrich) together with phosphatases inhibitors. Media were changed 6h later with fresh media and the cytoprotection was maintained by the addition of phosphatases inhibitors. Cell viability was assessed by measuring the reduction of WST-8 into formazan using Cell Counting Kit-8 (Sigma) according to the supplier's recommendation, 72h after tunicamycin treatment.

Row | Compound | Cytoprotection from ER stress compared to guanabenz (HeLa cells) | protection of interferon-gamma injured rat oligodendrocytes (FIG. 2) [1] | prevention of INS1 insulinoma cell death (FIG. 8) (INS1 insulinoma cell) | protection of Hela cells from ER stress (FIG. 1) (HeLa cells; ER stress induced by 6 hour exposure to tunicamycin)
1 | CCO/N=C(\N)N/N=C/c1ccccc1Cl [Compound 10, 2-(2-chlorobenzylidene)-N′-ethoxyhydrazinecarboximidamide] | ++ | – | – | –
2 | CCONC(=N)N/N=C/c1c(Cl)cccc1Cl [Compound 11, 2-(2,6-dichlorobenzylidene)-N-ethoxyhydrazinecarboximidamide] | +++ | dose dependent protection | prevent INS1 insulinoma cell death | –
3 | CCCONC(=N)N/N=C/c1ccccc1Cl [Compound 12, 2-(2-chlorobenzylidene)-N-propoxyhydrazinecarboximidamide] | +++ | dose dependent protection | prevent INS1 insulinoma cell death | dose dependent protection
4 | CCONC(=N)N/N=C/c1c(F)cccc1Cl [Compound 17, 2-(2-chloro-6-fluorobenzylidene)-N-ethoxyhydrazinecarboximidamide] | +++ | dose dependent protection | prevent INS1 insulinoma cell death | –
